Reference: publication PMC12649225, “Machine Learning-Identified Potent Antimicrobial Peptides Against Multidrug-Resistant Bacteria and Skin Infections” (Antibiotics, 2025)
Values after ≈ are worked out from the molar mass of the structure shown. Where two headings read alike, the source gives them in different places. No end group written: not given here.

Columns and labels:
A. baumannii RUH875 [1] = format: cell-based
Method: (§1) The bacterial strains used in this study included S. aureus JAR060131 [54] and the MDR ESKAPE pathogens Enterococcus faecium LUH15122, S. aureus LUH14616, Klebsiella pneumoniae LUH15104, A. baumannii RUH875 [55], Pseudomonas aeruginosa LUH15103, Enterobacter cloacae LUH15114, and the colistin-resistant Escherichia coli LUH15117. Before each experiment, bacteria from frozen stocks were cultured at 37 °C for 18–24 h on sheep blood agar plates (BioMérieux, Marcy-l’Étoile, France). All strains were then cultured from colonies either in tryptic soy broth (TSB; Oxoid, Basingstoke, UK) for A. baumannii, S. aureus, and E. faecium, or in brain heart infusion broth (BHI; Oxoid) for K. pneumoniae, P. aeruginosa, E. cloacae, and E. coli at 37 °C with shaking at 120 rpm for 18–24 h. Subsequently, bacteria were cultured to mid-logarithmic phase in the media described above at 37 °C with shaking at 120 rpm for 3 h. Bacteria were then washed twice with PBS and diluted to the required inoculum suspension concentration in Roswell Park Memorial Institute (RPMI)-1640 medium containing 20 mM HEPES and L-glutamine but without sodium bicarbonate (Sigma-Aldrich; hereafter referred to as RPMI), based on optical density at 620 nm. RPMI was selected because it supports bacterial growth without impairing AMP activity.
(§2) Bactericidal activity was assessed as described by de Breij et al.. Briefly, mid-logarithmic phase bacterial cultures were diluted to a final concentration of 1 × 10^7 colony-forming units (CFU)/mL in RPMI. Then, 10 µL was added to a final volume of 100 µL in RPMI (final concentration: 1 × 10^6 CFU/mL). Cultures were exposed to peptides either in RPMI or RPMI supplemented with 50% (v/v) human plasma (hereafter referred to as 50% plasma), obtained from four healthy volunteers after informed consent, frozen after collection, and pooled (Sanquin, Amsterdam, The Netherlands). Assays were performed in duplicate using round-bottom polypropylene microtiter plates (Costar, Arlington, VA, USA) and repeated three times. In the initial screening phase (Table 1, Table 2 and Table S1), peptide solutions of 1, 10, and 100 μM (final concentration) were tested against A. baumannii RUH875 and S. aureus JAR060131 in RPMI and in 50% plasma. After this selection process, two lead candidates, their RI variants, and reference peptides were tested with a final concentration range of 0.12 to 120 µM (two-fold dilutions) in RPMI and in 50% plasma (Table 3). The peptides were also tested against ESKAPE pathogens, with Synthetic Antimicrobial and Antibiofilm Peptide (SAAP)-148 as a reference peptide (Table 4).RPMI or 50% plasma served as no-treatment controls. After 2 and 18 h of incubation at 37 °C with shaking at 120 rpm in a humidified environment, the numbers of viable bacteria were quantified. Bactericidal activity was expressed as the lethal concentration 99.9% (LC99.9), defined as the lowest peptide concentration that killed ≥99.9% of bacteria within 2 h (LC99.9_2h) or 18 h (LC99.9_18h) compared to the initial inoculum.

S. aureus JAR060131 [2] = format: cell-based; settings: for LC99.9 S. aureus JAR060131 50% Plasma 2 h / LC99.9 S. aureus JAR060131 RPMI 2 h: JAR060131, 2 h
Method: as §1, §2

[3] = system: A. baumannii RUH875 biofilm; assay: Biofilm killing; format: cell-based, Acinetobacter baumannii; settings: for A. baumannii biofilm killing, 24 h treatment (in words): up to 120 µM; for Concentration achieving significant biofilm killing of A. baumannii: at any treatment time (2 h, 24 h), tested up to 120 µM
Method: (§3) Mid-logarithmic phase cultures of A. baumannii RUH875 or S. aureus JAR060131 were diluted to 1 × 10^8 CFU/mL in RPMI supplemented with 1% glucose. A total of 100 μL of each suspension was added to flat-bottom polystyrene 96-well microplates (Costar) and incubated under static conditions at 37 °C in a humidified atmosphere for 24 h to allow biofilm formation. After 24 h, planktonic bacteria were removed, and wells were carefully washed with 100 μL PBS [60]. […] Control samples were exposed to 100 μL of PBS only.
(§4) Biofilms were treated at 37 °C for either 2 or 24 h. […] Plates were sealed and sonicated for 5 min (Elmasonic, Singen, Germany; 45 kHz) at room temperature to dislodge adherent bacteria. […] Quantitative cultures were performed by plating serial 10-fold dilutions on sheep blood agar, and results were expressed as log10 CFU per well. The lower limit of detection was three CFU. Each condition was tested in six replicates.

[4] = system: S. aureus JAR060131 biofilm; assay: Biofilm killing; format: cell-based, Staphylococcus aureus; settings: for Concentration giving ≥3-log reduction of S. aureus biofilm CFU within 24 h / S. aureus biofilm killing, 24 h treatment (in words): 24 h treatment; for Concentration giving ≥3-log reduction of S. aureus biofilm CFU within 24 h: >3 log for BP2 and pexiganan; for S. aureus biofilm killing, 24 h treatment (in words): up to 120 µM
Method: as §3, §4

S. aureus JAR060131 [5] = assay: microbe, parasite or virus in culture; format: cell-based, Staphylococcus aureus; settings: Staphylococcus aureus
Method: (§5) The potential for resistance development to GDST-038, GDST-045, and their RI variants was assessed as described by Habets and Brockhurst. Resistance development to the antibiotics rifampicin and ciprofloxacin (both from Sigma-Aldrich) was evaluated for comparison. Briefly, 10 μL of a mid-logarithmic phase culture of A. baumannii RUH875 or S. aureus JAR060131 was added to 90 μL of peptide (final concentrations: 0.23 to 120 μM) or antibiotic (final concentrations: 0.03 to 256 μg/mL) solution in RPMI, in 96-well polypropylene round-bottom plates (Costar). All incubations were performed in quadruplicate. Plates were sealed with breathable seals (Greiner) and incubated at 37 °C with shaking at 120 rpm in a humidified environment for 18 h (S. aureus) or 48 h (A. baumannii).
(§6) The minimum inhibitory concentration (MIC), defined as the lowest concentration that inhibited visible bacterial growth, was then determined. Subsequently, 2 μL from the 0.5-fold MIC condition was transferred to fresh medium containing a concentration series ranging from 0.5- to 8-fold the new MIC. This procedure was repeated over 22 consecutive passages to monitor resistance development.

A. baumannii RUH875 [6] = assay: microbe, parasite or virus in culture; format: cell-based, Acinetobacter baumannii; settings: for MIC: Acinetobacter baumannii
Method: as §5, §6

[7] = system: BJ human skin fibroblast cells; assay: LDH leakage assay (membrane integrity); settings: lowest concentration causing >30% LDH leakage; BJ fibroblasts; 24 h; DMEM with 2% FBS; 0.05-60 µM
Method: (§7) BJ human skin fibroblast cells (ATCC CRL-2522; RRID: CVCL_3653; LGC Standards, Germany (September 2023)) were cultured in Dulbecco’s Modified Eagle Medium (DMEM; Gibco, Waltham, MA, USA) supplemented with 10% (v/v) foetal bovine serum (FBS; Sigma-Aldrich) and 1% (v/v) penicillin/streptomycin (pen/strep; Gibco). Cell suspensions (5 × 10^5 cells/mL) were seeded into 96-well plates (100 μL/well; Thermo Scientific, Waltham, MA, USA) and allowed to adhere for 24 h. Monolayers were then exposed to two-fold serial dilutions of GDST peptides, their RI variants, and reference peptides (final concentrations: 0.05 to 60 µM) in fresh DMEM with 2% (v/v) FBS for 24 h at 37 °C in a humidified atmosphere with 5% CO2.
(§8) Cell viability and membrane integrity were assessed using the water-soluble tetrazolium salt (WST-1; Roche, Basel, Switzerland) assay and the lactate dehydrogenase (LDH; Abcam, Cambridge, UK) assay, respectively, according to manufacturer instructions. Results were expressed as percentages of metabolic activity and LDH leakage relative to untreated control cells and the positive lysis control, respectively. The cytotoxic concentration was defined as the lowest peptide concentration causing <70% metabolic activity and >30% LDH leakage. All experiments were performed in triplicate.

[8] = system: BJ human skin fibroblast cells; assay: WST-1 metabolic activity assay (cell viability); settings: lowest concentration causing <70% metabolic activity (WST-1); BJ fibroblasts; 24 h; DMEM with 2% FBS; 0.05-60 µM
Method: as §7, §8

[9] = RPMI, 18 h, median of three independent experiments

| Molecule | LC99.9 A. baumannii RUH875 50% Plasma 2 h (A. baumannii RUH875 [1]; RUH875, 2 h) | LC99.9 A. baumannii RUH875 RPMI 18 h (A. baumannii RUH875 [1]; RUH875, 18 h) | LC99.9 S. aureus JAR060131 50% Plasma 2 h (S. aureus JAR060131 [2]) | LC99.9 S. aureus JAR060131 RPMI 2 h (S. aureus JAR060131 [2]) | LC99.9 S. aureus JAR060131 RPMI 18 h (S. aureus JAR060131 [2]; JAR060131, 18 h) | A. baumannii biofilm killing, 24 h treatment (in words) [3] | Concentration giving ≥3-log reduction of S. aureus biofilm CFU within 24 h [4] | Cytotoxicity LDH Leakage >30% [7] | Cytotoxicity Metabolic Activity <70% [8] | Concentration achieving significant biofilm killing of A. baumannii [3] | S. aureus biofilm killing, 24 h treatment (in words) [4] | also measured |
| --- | --- | --- | --- | --- | --- | --- | --- | --- | --- | --- | --- | --- |
| GIGKFLKKAKKFGKAFVKILKK-NH2 (C-terminus assumed) [Pexiganan, reference compound] | 0.23 µM | 0.47 µM | 7.50 µM | 0.47 µM | 0.23 µM | not sustained after 24 h | ≥ 30 µM | – | – | – | – | Concentration killing ≥3 log CFU of A. baumannii biofilm within 2 h ([3]; 24 h biofilm, 2 h treatment in PBS, 1.88-120 μM, vs untreated biofilm): ≥ 30 µM |
| CO[C@H]1/C=C/O[C@@]2(C)Oc3c(C)c(O)c4c(O)c(c(/C=N/N5CCN(C)CC5)c(O)c4c3C2=O)NC(=O)/C(C)=C\C=C\[C@H](C)[C@H](O)[C@@H](C)[C@@H](O)[C@@H](C)[C@H](OC(C)=O)[C@@H]1C [rifampicin, reference compound] | – | – | – | – | – | – | – | – | – | – | – | MIC (S. aureus JAR060131 [5]; JAR060131, read-out: MIC S. aureus after 22 passages): 4100 µg/mL (≈ 4980 µM); MIC (S. aureus JAR060131 [5]; JAR060131, read-out: MIC S. aureus before passaging): 0.25 µg/mL (≈ 0.304 µM) |
| O=C(O)c1cn(C2CC2)c2cc(N3CCNCC3)c(F)cc2c1=O [ciprofloxacin, reference compound] | – | – | – | – | – | – | – | – | – | – | – | MIC (A. baumannii RUH875 [6]; RUH875, read-out: MIC A. baumannii after 22 passages): 64 µg/mL (≈ 193 µM); MIC (A. baumannii RUH875 [6]; RUH875, read-out: MIC A. baumannii before passaging): 0.5 µg/mL (≈ 1.51 µM); MIC increase in A. baumannii after 22 passages (A. baumannii RUH875 [6]; relative to first passage): 128 fold |
| CC[C@H](C)[C@H](NC(=O)[C@H](CCCCN)NC(=O)[C@H](CCC(=O)O)NC(=O)[C@H](CCCCN)NC(=O)[C@H](CO)NC(=O)[C@H](CCCCN)NC(=O)[C@H](CCCNC(=N)N)NC(=O)[C@H](Cc1ccccc1)NC(=O)[C@H](Cc1ccccc1)NC(=O)[C@H](CC(=O)O)NC(=O)CNC(=O)[C@H](CC(C)C)NC(=O)[C@@H](N)CC(C)C)C(=O)NCC(=O)N[C@@H](CCCCN)C(=O)N[C@@H](CCC(=O)O)C(=O)N[C@@H](Cc1ccccc1)C(=O)N[C@@H](CCCCN)C(=O)N[C@@H](CCCNC(=N)N)C(=O)N[C@H](C(=O)N[C@H](C(=O)N[C@@H](CCC(N)=O)C(=O)N[C@@H](CCCNC(=N)N)C(=O)N[C@H](C(=O)N[C@@H](CCCCN)C(=O)N[C@@H](CC(=O)O)C(=O)N[C@@H](Cc1ccccc1)C(=O)N[C@@H](CC(C)C)C(=O)N[C@@H](CCCNC(=N)N)C(=O)N[C@@H](CC(N)=O)C(=O)N[C@@H](CC(C)C)C(=O)N[C@H](C(=O)N1CCC[C@H]1C(=O)N[C@@H](CCCNC(=N)N)C(=O)N[C@H](C(=O)N[C@@H](CCC(=O)O)C(=O)N[C@@H](CO)C(=O)O)[C@@H](C)O)C(C)C)[C@@H](C)CC)C(C)C)[C@@H](C)CC [LL-37, reference compound] | – | – | – | – | – | – | – | 7.5 µM | 15 µM | > 120 µM | did not exhibit significant biofilm-killing effects | LC99.9 A. baumannii RUH875 50% Plasma 2 h (A. baumannii RUH875 [1]; 50% plasma, 2 h, median of three independent experiments): 60 µM; LC99.9 A. baumannii RUH875 50% Plasma 18 h (A. baumannii RUH875 [1]; 50% plasma, 18 h, median of three independent experiments): 60 µM; LC99.9 A. baumannii RUH875 RPMI 2 h (A. baumannii RUH875 [1]; RPMI, 2 h, two-fold dilutions 0.12-120 µM, median of three independent experiments): 1.88 µM; LC99.9 A. baumannii RUH875 RPMI 18 h (A. baumannii RUH875 [1]; [9]): 1.88 µM; LC99.9 S. aureus JAR060131 RPMI 18 h (S. aureus JAR060131 [2]; [9]): > 120 µM |
| LRAMCIKWWSGKHPK [TC84, reference compound] | 3.75 µM | 3.75 µM | 7.5 µM | 7.5 µM | 7.5 µM | – | – | – | – | > 120 µM | did not exhibit significant biofilm-killing effects | – |
| GKWKLFKKAFKKFLKILAC [BP2, reference compound] | – | – | – | – | – | complete eradication | ≥ 30 µM | 1.88 µM | 0.47 µM | – | – | Concentration giving complete eradication of S. aureus biofilm within 24 h ([4]; 24 h biofilm, 24 h treatment in PBS): ≥ 60 µM |
